The results in this text go back to US20250206751A1, “HETEROCYCLIC COMPOUND FOR INDUCING DEGRADATION OF G12D MUTANT KRAS PROTEIN” (Astellas Pharma Inc., priority 2022, published 2025).

The target in one experiment is T1, KRAS G12D protein (Homo sapiens, UniProt P01116, G12D).
T1 construct: host or cells: AsPC-1
The experiment is described as follows: KRAS degradation activity by Cell ELISA in AsPC-1 (Test Example 1). It counts as cell-based. The conditions noted are these: AsPC-1 cells, cultured overnight with compound, corrected with β-actin, read-out: DC50 (50% degradation concentration of the amounts of KRAS). Here is the method: Test Example 1: Evaluation of KRAS Degradation Activity on Human G12D Mutant KRAS-Positive Pancreatic Cancer Line AsPC-1 (CRL-1682; ATCC)
The KRAS degradation activity of test compounds was evaluated by measuring the expression levels of KRAS G12D protein by Cell ELISA.
AsPC-1 cells were seeded at 20 μL per well on 384-well plates (from Greiner bio-one) to give 2.0×10^4 cells per well. As for the cell culture conditions, RPMI 1640 (from Sigma-Aldrich) medium containing 10% fetal bovine serum (from Cytiva) was used in the presence of 5% CO2 at 37° C.
The next day, the test compounds (10 points having final concentrations in the range of 10 μM to 0.3 nM) and DMSO (from FUJIFILM Wako Pure Chemical Corporation), which was the solvent for the test compounds, as a negative control were diluted 500-fold with a fresh medium and were added at 20 μL per well. The cells were cultured overnight.
The next day, the culture supernatant was removed, and 4% paraformaldehyde phosphate buffer (from FUJIFILM Wako Pure Chemical Corporation) was added at 20 μL per well. The plates were allowed to stand for 30 minutes at room temperature to thus immobilize the cells. Then, the supernatant was removed, and 0.1% Triton X-100 (from Amersham Biosciences)-containing Phosphate buffered saline (PBS; from FUJIFILM Wako Pure Chemical Corporation) was added at 20 μL per well. After allowing to stand for 10 minutes at room temperature, the supernatant was removed. PBS was added at 25 μL per well, and the supernatant was removed to thus wash each well. The washing was performed twice in total. Next, the supernatant was removed, and 0.5% sodium dodecyl sulfate (SDS; from Invitrogen)-containing PBS was added at 20 μL per well. After allowing to stand at room temperature for 10 minutes, the supernatant was removed by a centrifugal operation (using a centrifugal dehydrator machine, the supernatant was removed by the same method hereinafter). PBS was added at 25 μL per well, and the supernatant was removed to thus wash each well. The washing was performed twice in total. The supernatant was removed, and blocking solution (Intercept Blocking Buffer; from Li-COR Biosciences) was added at 20 μL per well. After allowing to stand for 30 minutes at room temperature, the supernatant was removed, and a solution obtained by diluting anti-β-actin antibody (Anti-beta Actin antibody [mAbcam 8226]-Loading Control; from abcam) 1,000-fold with blocking solution and a solution obtained by diluting anti-Ras (G12D Mutant Specific) antibody (Ras (G12D Mutant Specific) (D8H7) Rabbit mAb #14429; from Cell Signaling Technology) and anti-β-actin antibody (from abcam) 1,000-fold with blocking solution were respectively added to positive control wells and the other wells at 20 μL per well as a primary antibody. The plate was allowed to stand overnight at 4° C.
The next day, the supernatant was removed. PBS was added at 25 μL per well, and the supernatant was removed to thus wash each well. The washing was performed twice in total. The supernatant was removed, and a solution obtained by diluting Donkey anti-Mouse IgG H&L (IRDye 680RD) (from Li-COR Biosciences) and Goat anti-Rabbit IgG H&L (IRDye 800CW) (from Li-COR Biosciences) 1,000-fold with blocking solution was added at 20 μL per well as a secondary antibody. After allowing to stand for 1 hour at room temperature, the supernatant was removed. PBS was added at 25 μL per well, and the supernatant was removed to thus wash each well. The washing was performed twice in total. After removing the supernatant, the plate was dried with air at room temperature for 2 hours or more, and the 700 nm and 800 nm fluorescent signals were measured with Aerius (from Li-COR Biosciences). […]
Background: An ELISA detects its analyte on a solid surface through an enzyme-linked reagent.

The test system of experiment [1] is phosphorylation of threonine 202 (Thr202) and tyrosine 204 (Tyr204) of ERK. The experiment is described as follows: ERK phosphorylation inhibitory effect by Cell ELISA in AsPC-1 (Test Example 2). Type of experiment: cell-based, human. The conditions noted are these: Homo sapiens, ASPC1, AsPC-1 cells, cultured overnight with compound; 1 μM trametinib taken as 0%. Here is the method:
Test Example 2: Evaluation of ERK Phosphorylation Inhibitory Effect on Human G12D Mutant KRAS-Positive Pancreatic Cancer Line AsPC-1
The ERK phosphorylation inhibitory effect of test compounds was evaluated by measuring phosphorylation of threonine 202 (Thr202) and tyrosine 204 (Tyr204) of ERK located downstream of the KRAS signal by Cell ELISA.
AsPC-1 cells were seeded on 384-well plates at 36 μL/well to give 2.0×10^4 cells per well. As for the cell culture conditions, RPMI 1640 medium containing 10% fetal bovine serum was used in the presence of 5% CO2 at 37° C.
The next day, the test compounds (10 points having final concentrations in the range of 10 μM to 0.3 nM), trametinib (MEK inhibitor) of a final concentration of 1 μM as positive control and DMSO, which was the solvent for the test compounds, as negative control were diluted 100-fold with a fresh medium and were added at 4 μL per well. The cells were cultured overnight. After culturing, 30% glyoxal solution (40% glyoxal [from Nacalai Tesque] was diluted with PBS) was quickly added at 30 μL per well, and the plate was allowed to stand for 60 minutes at room temperature to thus immobilize the cells. Then, the plate was centrifuged to remove the supernatant (using a centrifugal dehydrator machine, the supernatant was removed by the same method hereinafter), and 0.1% Triton X-100-containing PBS was added at 20 μL per well. After allowing to stand for 10 minutes at room temperature, the supernatant was removed, and the same operation was further repeated. Next, 0.5% SDS-containing PBS was added at 20 μL per well, and after allowing to stand at room temperature for 30 minutes, the supernatant was removed. Subsequently, blocking solution (Intercept Blocking Buffer) was added at 20 μL per well, and the plate was allowed to stand for 1 hour at room temperature. The supernatant was removed, and an ERK (Thr202/Tyr204) phosphorylation antibody (Phospho-p44/42 MAPK (Erk 1/2) (Thr202/Tyr204) (D13.14.4E) XP Rabbit mAb; from Cell Signaling Technology) diluted 2,500-fold with blocking solution was added at 15 μL per well as a primary antibody. The plates were allowed to stand at 4° C. overnight.
The next day, the supernatant was removed. 0.05% Tween-20 (from Thermo Fisher Scientific)-containing PBS was added at 50 μL per well, and the supernatant was removed to thus wash each well. The washing was performed three times in total. After washing, Goat anti-Rabbit IgG H&L (IRDye 800CW) diluted 1,000-fold with blocking solution was added at 15 μL per well as a secondary antibody, and the plates were allowed to stand for 1 hour at room temperature. The supernatant was removed, and each well was washed three times with 0.05% Tween-20-containing PBS in the same manner as after the primary antibody reaction. After removing the supernatant, the plates were dried with air at room temperature for 3 hours or more, and the 800-nm fluorescent signals were measured with Aerius.
With the signaling value at the time of addition of DMSO taken as 100% and with the signaling value at the time of addition of 1 μM trametinib taken as 0%, the 50% inhibitory concentration values (IC50) were calculated by Sigmoid-Emax nonlinear regression analysis.

The test system of experiment [2] is human G12D mutant KRAS-positive pancreatic cancer line AsPC-1. The experiment is described as follows: Non-anchorage-dependent cell growth inhibition, spheroid 3D cell culture (Test Example 3). The conditions noted are these: Homo sapiens, ASPC1, 144 h, AsPC-1 spheroid 3D culture, 6 days, CellTiter Glo 2.0. Type of experiment: cell-based. Here is the method: Test Example 3: Evaluation of Non-Anchorage-Dependent Cell Growth Inhibitory Effect on Human G12D Mutant KRAS-Positive Pancreatic Cancer Line AsPC-1
The non-anchorage-dependent cell growth inhibitory effect of test compounds was evaluated by spheroid 3D cell culture.
AsPC-1 cells were seeded on low-cell-adhesive round bottom 384-well plates (PrimeSurface: from Sumitomo Bakelite) at 36 μL/well to give 5×10^2 cells per well. As for the cell culture conditions, RPMI 1640 medium containing 10% fetal bovine serum was used in the presence of 5% CO2 at 37° C.
The next day, the test compounds (10 or 6 points having final concentrations in the range of 10 μM to 0.3 nM) and DMSO, which was the solvent for the test compounds, as a negative control were diluted 100-fold with a fresh medium and were added at 4 μL per well. After culturing in the presence of 5% CO2 at 37° C. for 6 days, CellTiter Glo 2.0 (from Promega) was added at 20 μL per well. After stirring with a plate mixer (from FINEPCR) at room temperature for 1 hour, the luminescent signals were measured with ARVO X3 (from PerkinElmer).
With the signaling value in treatment with DMSO taken as 100% and with the signaling value in the medium alone without cells taken as 0%, the 50% inhibitory concentration values (IC50) were calculated by Sigmoid-Emax nonlinear regression analysis.

The term IC50 denotes the concentration at which inhibition is half-maximal.

T1 sequence (P01116 1-188 isoform P01116-2 G12D): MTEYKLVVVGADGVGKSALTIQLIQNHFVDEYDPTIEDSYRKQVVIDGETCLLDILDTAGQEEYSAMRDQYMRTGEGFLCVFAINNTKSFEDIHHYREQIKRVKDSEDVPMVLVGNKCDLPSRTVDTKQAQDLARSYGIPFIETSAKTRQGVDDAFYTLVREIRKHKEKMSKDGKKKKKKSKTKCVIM

`CO[C@@H](C)COc1nc(N(C)[C@H]2CCNC2)c2cc(C3CC3)c(-c3c(C)c(F)cc4[nH]ncc34)c(OCc3ccc(-c4cn([C@H](C(=O)N5C[C@H](O)C[C@H]5C(=O)N[C@@H](CO)c5ccc(N6CCOC6=O)cc5)C(C)C)nn4)cc3)c2n1` (atropisomer, axis not shown) [Example 15]: the DC50 at KRAS G12D protein stood at 99 nM. Also, the IC50 in experiment [1] and in experiment [2] was 7 nM each time.

Turning to `CO[C@H](C)COc1nc(N(C)[C@H]2CCNC2)c2cc(C3CC3)c(-c3c(C)c(F)cc4[nH]ncc34)c(OCc3ccc(-c4cn([C@H](C(=O)N5C[C@H](O)C[C@H]5C(=O)N[C@@H](CO)c5ccc(-c6scnc6C)cc5)C(C)C)nn4)cc3)c2n1` (atropisomer, axis not shown) [Example 16], the DC50 at KRAS G12D protein was 26 nM. In addition, the concentration for half-maximal inhibition (IC50) in experiment [1] is 16 nM; in experiment [2], 14 nM.

Consider `Cc1ncsc1-c1ccc([C@H](CO)NC(=O)[C@@H]2C[C@@H](O)CN2C(=O)[C@H](C(C)C)n2cc(-c3ccc(COc4c(-c5c(C)c(F)cc6[nH]ncc56)c(C5CC5)cc5c(N(C)[C@H]6CCNC6)nc(OC[C@H]6CCOC6)nc45)cc3)nn2)cc1` (atropisomer, axis not shown) [Example 17], for which the DC50 on KRAS G12D protein was 74 nM. Further, the figures for the concentration for half-maximal inhibition (IC50) in experiment [1] and in experiment [2] were 7 nM and 8 nM, respectively.

As to `Cc1ncsc1-c1ccc([C@H](CO)NC(=O)[C@@H]2C[C@@H](O)CN2C(=O)[C@H](C(C)C)n2cc(-c3ccc(COc4c(-c5c(C)c(F)cc6[nH]ncc56)c(C5CC5)cc5c(N(C)[C@H]6CCNC6)nc(OC[C@H]6CCN(C)C6)nc45)cc3)nn2)cc1` (atropisomer, axis not shown) [Example 18], the DC50 at KRAS G12D protein turned out to be 508 nM. Moreover, the half-inhibitory concentration (IC50) in experiment [1] was 100 nM; in experiment [2] it was 73 nM.

Consider `Cc1ncsc1-c1ccc([C@H](CO)NC(=O)[C@@H]2C[C@@H](O)CN2C(=O)[C@H](C(C)C)n2cc(-c3ccc(COc4c(-c5c(C)c(F)cc6[nH]ncc56)c(C5CC5)cc5c(N(C)[C@H]6CCNC6)nc(O[C@@H](C)[C@H](C)O)nc45)cc3)nn2)cc1` (atropisomer, axis not shown) [Example 19], for which the DC50 at KRAS G12D protein was 91 nM. The 50% inhibitory concentration (IC50) was 95 nM in experiment [1] and 50 nM in experiment [2].

Consider `CO[C@@H](C)[C@H](C)Oc1nc(N(C)[C@H]2CCNC2)c2cc(C3CC3)c(-c3c(C)c(F)cc4[nH]ncc34)c(OCc3ccc(-c4cn([C@H](C(=O)N5C[C@H](O)C[C@H]5C(=O)N[C@@H](CO)c5ccc(-c6scnc6C)cc5)C(C)C)nn4)cc3)c2n1` (atropisomer, axis not shown) [Example 20], for which, on KRAS G12D protein, the DC50 was found to be 41 nM. Also, the concentration for half-maximal inhibition (IC50) came to 38 nM in experiment [1] and 21 nM in experiment [2].

For `CO[C@@H](C)COc1nc(N(C)[C@H]2CCNC2)c2cc(C3CC3)c(-c3c(C)c(F)cc4[nH]ncc34)c(OCc3ccc(-c4cn([C@H](C(=O)N5C[C@H](O)C[C@H]5C(=O)N[C@@H](CO)c5ccc(-n6ccnc6C)cc5)C(C)C)nn4)cc3)c2n1` (atropisomer, axis not shown) [Example 21], the DC50 on KRAS G12D protein worked out at 33 nM. The IC50 in experiment [1] came to 47 nM; in experiment [2], 53 nM.

In the case of `Cc1ncsc1-c1ccc([C@H](CO)NC(=O)[C@@H]2C[C@@H](O)CN2C(=O)[C@H](C(C)C)n2cc(-c3ccc(COc4c(-c5c(C)c(F)cc6[nH]ncc56)c(C5CC5)cc5c(N(C)[C@H]6CCNC6)nc(OC[C@@H]6CCOC6)nc45)cc3)nn2)cc1` (atropisomer, axis not shown) [Example 23], on KRAS G12D protein, the DC50 was found to be 31 nM. Besides, the values for the 50% inhibitory concentration (IC50) in experiment [1] and in experiment [2] were 13 nM and 12 nM, respectively.

Turning to `COCCOc1nc(N(C)[C@H]2CCNC2)c2cc(C3CC3)c(-c3c(C)c(F)cc4[nH]ncc34)c(OCc3ccc(-c4cn([C@H](C(=O)N5C[C@H](O)C[C@H]5C(=O)N[C@@H](CO)c5ccc(-c6scnc6C)cc5)C(C)C)nn4)cc3)c2n1` (atropisomer, axis not shown) [Example 24], at KRAS G12D protein, the DC50 came out at 48 nM. The IC50 is 15 nM in experiment [1] and 26 nM in experiment [2].

`CCn1nccc1-c1ccc([C@H](CO)NC(=O)[C@@H]2C[C@@H](O)CN2C(=O)[C@H](C(C)C)n2cc(-c3ccc(COc4c(-c5c(C)c(F)cc6[nH]ncc56)c(C5CC5)cc5c(N(C)[C@H]6CCNC6)nc(OC[C@H](C)OC)nc45)cc3)nn2)nc1` (atropisomer, axis not shown) [Example 25]: at KRAS G12D protein, the DC50 was 75 nM. In addition, the half-inhibitory concentration (IC50) in experiment [1] and in experiment [2] was 6 nM throughout.
